Assay results: ChEMBL document CHEMBL5715952 (Oncotarget, 2015)

Columns and labels:
[1] = Inhibition of CSF1R/FLT3 in human RPMI-8226 cells assessed as reduction of cell growth incubated for 72 hrs by CellTiter 96 aqueous one solution cell proliferation assay; type: cell-based; conditions: RPMI-8226, 72 h
[2] = Inhibition of CSF1R/FLT3 in bortezomib Resistant human RPMI-8226 cells assessed as reduction of cell growth incubated for 72 hrs by CellTiter 96 aqueous one solution cell proliferation assay; type: cell-based; conditions: Bortezomib-resistant RPMI-8226, 72 h
[3] = Inhibition of CSF1R/FLT3 in Melphalan Resistant human RPMI-8226 cells assessed as reduction of cell growth incubated for 72 hrs by CellTiter 96 aqueous one solution cell proliferation assay; type: cell-based; conditions: Melphalan-resistant RPMI-8226 cell
[4] = Inhibition of CSF1R/FLT3 in human ANBL-6 cells assessed as reduction of cell growth incubated for 72 hrs by CellTiter 96 aqueous one solution cell proliferation assay; type: cell-based; conditions: ANBL-6, 72 h
[5] = Inhibition of CSF1R/FLT3 in human bortezomib-resistant ANBL6 cells assessed as reduction of cell growth incubated for 72 hrs by CellTiter 96 aqueous one solution cell proliferation assay; type: cell-based
[6] = Inhibition of CSF1R/FLT3 in human U-266 cells assessed as reduction of cell growth incubated for 72 hrs by CellTiter 96 aqueous one solution cell proliferation assay; type: cell-based; conditions: U-266, 72 h
[7] = Ratio of IC50 for inhibition of CSF1R/FLT3 in human RPMI-8226 cells assessed as reduction of cell viability to IC50 for inhibition of CSF1R/FLT3 in human melphalan-resistant RPMI-8226 cells assessed as reduction of cell viability; conditions: time 72 hrs; condition multiple myeloma
[8] = Ratio of IC50 for inhibition of CSF1R/FLT3 in human RPMI-8226 cells assessed as reduction of cell viability to IC50 for inhibition of CSF1R/FLT3 in human RPMI-8226/BR resistant cells assessed as reduction of cell viability; conditions: condition multiple myeloma
[9] = Ratio of IC50 for inhibition of CSF1R/FLT3 in human ANBL6 cells assessed as reduction of cell viability to IC50 for inhibition of CSF1R/FLT3 in human ANBL6/BR resistant cells assessed as reduction of cell viability; conditions: condition multiple myeloma
[10] = Inhibition of PI3K/mTOR/ATM in human RPMI-8226 cells assessed as reduction of cell growth incubated for 72 hrs by CellTiter 96 aqueous one solution cell proliferation assay; type: cell-based; conditions: RPMI-8226, 72 h
[11] = Inhibition of PI3K/mTOR/ATM in bortezomib Resistant human RPMI-8226 cells assessed as reduction of cell growth incubated for 72 hrs by CellTiter 96 aqueous one solution cell proliferation assay; type: cell-based; conditions: Bortezomib-resistant RPMI-8226, 72 h
[12] = Inhibition of PI3K/mTOR/ATM in Melphalan Resistant human RPMI-8226 cells assessed as reduction of cell growth incubated for 72 hrs by CellTiter 96 aqueous one solution cell proliferation assay; type: cell-based; conditions: Melphalan-resistant RPMI-8226 cell
[13] = Inhibition of PI3K/mTOR/ATM in human ANBL-6 cells assessed as reduction of cell growth incubated for 72 hrs by CellTiter 96 aqueous one solution cell proliferation assay; type: cell-based; conditions: ANBL-6, 72 h
[14] = Inhibition of PI3K/mTOR/ATM in human bortezomib-resistant ANBL6 cells assessed as reduction of cell growth incubated for 72 hrs by CellTiter 96 aqueous one solution cell proliferation assay; type: cell-based
[15] = Inhibition of PI3K/mTOR/ATM in human U-266 cells assessed as reduction of cell growth incubated for 72 hrs by CellTiter 96 aqueous one solution cell proliferation assay; type: cell-based; conditions: U-266, 72 h
[16] = Ratio of IC50 for inhibition of PI3K/mTOR/ATM in human RPMI-8226 cells assessed as reduction of cell viability to IC50 for inhibition of PI3K/mTOR/ATM in human melphalan-resistant RPMI-8226 cells assessed as reduction of cell viability; conditions: time 72 hrs; condition multiple myeloma
[17] = Ratio of IC50 for inhibition of PI3K/mTOR/ATM in human RPMI-8226 cells assessed as reduction of cell viability to IC50 for inhibition of PI3K/mTOR/ATM in human RPMI-8226/BR resistant cells assessed as reduction of cell viability; conditions: condition multiple myeloma
[18] = Ratio of IC50 for inhibition of PI3K/mTOR/ATM in human ANBL6 cells assessed as reduction of cell viability to IC50 for inhibition of PI3K/mTOR/ATM in human ANBL6/BR resistant cells assessed as reduction of cell viability; conditions: condition multiple myeloma

| SMILES | IC50 [1] | IC50 [2] | IC50 [3] | IC50 [4] | IC50 [5] | IC50 [6] | Ratio IC50 [7] | Ratio IC50 [8] | Ratio IC50 [9] | IC50 [10] | IC50 [11] | IC50 [12] | IC50 [13] | IC50 [14] | IC50 [15] | Ratio IC50 [16] | Ratio IC50 [17] | Ratio IC50 [18] |
| --- | --- | --- | --- | --- | --- | --- | --- | --- | --- | --- | --- | --- | --- | --- | --- | --- | --- | --- |
| CN(C)CC(=O)N1CCC(c2ccc(NC(=O)c3nc(C#N)c[nH]3)c(C3=CCCCC3)c2)CC1 | 10 µM | 10 µM | 10 µM | 10 µM | 10 µM | 10 µM | 1 | 1 | 1 |  |  |  |  |  |  |  |  |  |
| O=c1cc(-c2cccc3c2Sc2ccccc2S3)oc(N2CCOCC2)c1 [KU-55933] |  |  |  |  |  |  |  |  |  | 10 µM | 10 µM | 10 µM | 10 µM | 10 µM | 10 µM | 1 | 1 | 1 |
